From patent US20110104055A1, “SUBSTITUTED N-ARYL BENZAMIDES AND RELATED COMPOUNDS FOR TREATMENT OF AMYLOID DISEASES AND SYNUCLEINOPATHIES” (priority 2002, published 2011)

Tests used:
Type in all cases: biochemical
[1] = target: T1, α-synuclein fibrils (Homo sapiens, UniProt P37840); experiment: Thioflavin T fluorometry, disruption of pre-formed α-synuclein fibrils (Example 12); settings: 3 days; for % Inhibition α-synuclein (result ± S.D.), Thioflavin T fluorometry: 30 μg pre-fibrillized α-synuclein, 37° C.
T1 construct: purchased rPeptide
Protocol: (§1) In this assay, Thioflavin T binds specifically to α-synuclein fibrils, and this binding produces a fluorescence enhancement at 485 nm that is directly proportional to the amount of α-synuclein fibrils present. The higher the fluorescence, the greater the amount of α-synuclein fibrils present (Naki et al, Lab. Invest. 65:104-110, 1991; Levine III, Protein Sci. 2:404-410, 1993; Amyloid: Int. J. Exp. Clin. Invest. 2:1-6, 1995).
In this study, 30 μg of pre-fibrillized α-synuclein (rPeptide) was incubated at 37° C. for 3 days either alone or in the presence of compounds DC-0051-F1, F2, F3, F4, F5, F6 or EDTA (at α-synuclein:test compound weight ratios of 1:1, 1:0.1, 1:0.01 or 1:0.001). Following 3-days of co-incubation, 50 μl of each incubation mixture was transferred into a 96-well microtiter plate containing 150 μl of distilled water and 50 μl of a Thioflavin T solution (i.e. […] Thioflavin T in 250 mM phosphate buffer, pH 6.8). The fluorescence was read at 485 nm (444 nm excitation wavelength) using an ELISA plate fluorometer after subtraction with buffer alone or compound alone, as blank.

[2] = target: T2, IAPP fibrils (Homo sapiens, UniProt P10997); experiment: Thioflavin T fluorometry, disruption of IAPP fibrils; settings: 3 days; for % inhibition of IAPP (Thioflavin T fluorometry): 25 μM IAPP, 37° C.
T2 construct: purchased Bachem Inc
T2 sequence (P10997 34-70 limits assumed): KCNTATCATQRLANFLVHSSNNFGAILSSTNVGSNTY
Protocol: The biological activity of the compounds provided herein as disruptors/inhibitors of Alzheimer's disease β-amyloid protein (Aβ) fibrils, type 2 diabetes IAPP fibrils and Parkinson's disease NAC fibrils was assessed by determining the efficacy of the compounds to cause a disassembly/disruption of pre-formed amyloid fibrils of Alzheimer's disease (i.e. consisting of Aβ 1-42 fibrils), IAPP fibrils and Parkinson's disease NAC fibrils. […] In this assay Thioflavin T binds specifically to fibrillar amyloid, and this binding produces a fluorescence enhancement at 485 nm that is directly proportional to the amount of fibrils present. The higher the fluorescence, the greater the amount of fibrils present (Naki et al, Lab. Invest. 65:104-110, 1991; Levine III, Protein Sci. 2:404-410, 1993; Amyloid: Int. J. Exp. Clin. Invest. 2:1-6, 1995). The disruption of Aβ 1-42, even in its monomeric form, was confirmed by a study involving the use of SDS-PAGE and Western blotting methods.
as §1, with “assay” for “assay,”, “fibrillar amyloid,” for “α-synuclein fibrils,”, “amyloid” for “α-synuclein”, “formed.” for “present.”, “formed” for “present”, “al.,” for “al,”
In this study, 25 μM of IAPP (Bachem Inc) was incubated at 37° C. for 3 days, either alone, or in the presence of one of the compounds or EDTA (at IAPP:test compound weight ratios of 1:1, 1:0.1, 1:0.01 or 1:0.001). Following 3 days of co-incubation, 50 μl of each incubation mixture was transferred into a 96-well microtiter plate containing 150 μl of distilled water and 50 μl of a Thioflavin T solution (i.e. […] Thioflavin T in 250 mM phosphate buffer, pH 6.8). The fluorescence was read at 485 nm (444 nm excitation wavelength) using an ELISA plate fluorometer after subtraction with buffer alone or compound alone, as blank).

[3] = target: T3, Aβ 1-42 (Homo sapiens, UniProt P05067); experiment: SDS-PAGE/Western blot of Aβ 1-42 after incubation with compounds; settings: 25 μM pre-fibrillized Aβ 1-42, 37° C., 3 days, filtrate of 0.2 μm filter, 6E10 antibody
T3 construct: 25 μM of pre-fibrillized Aβ 1-42 (Bachem Inc) was incubated at 37° C; purchased Bachem Inc
Protocol: In this latter study, triplicate samples of pre-fibiillized Aβ 1-42 (25 μM) was incubated at 37° C. for 3 days, alone or in the presence of the compounds or EDTA. Five micrograms of each sample was then filtered through a 0.2 μm filter. Protein recovered from the filtrate was then loaded, and ran on a 10-20% Tris-Tricine SDS-PAGE, blotted to nitrocellulose and detected using an Aβ-antibody (clone 6E10; Senetek).

[4] = Thioflavin T fluorometry, all concentrations tested

T3 sequence (P05067 672-713): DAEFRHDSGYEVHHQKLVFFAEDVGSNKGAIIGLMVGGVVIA

O=C(O)CN(CCN(CC(=O)O)CC(=O)O)CC(=O)O [EDTA]
disruption/disassembly of pre-formed α-synuclein fibrils, in words [1, 4]: no significant inhibition
% Inhibition α-synuclein (result ± S.D.), Thioflavin T fluorometry ([1]; α-synuclein:test compound wt/wt ratio 1:0.001): 0.0 ± 4.11%
% Inhibition α-synuclein (result ± S.D.), Thioflavin T fluorometry ([1]; α-synuclein:test compound wt/wt ratio 1:0.01): 0.0 ± 17.06%
% Inhibition α-synuclein (result ± S.D.), Thioflavin T fluorometry ([1]; α-synuclein:test compound wt/wt ratio 1:0.1): 0.0 ± 6.97%
% Inhibition α-synuclein (result ± S.D.), Thioflavin T fluorometry ([1]; α-synuclein:test compound wt/wt ratio 1:1): 0.0 ± 2.03%
% inhibition of IAPP (Thioflavin T fluorometry) ([2]; IAPP:test compound wt/wt ratio 1:0.001): 0.0 +/− 0.56%
% inhibition of IAPP (Thioflavin T fluorometry) ([2]; IAPP:test compound wt/wt ratio 1:0.01): 4. +/− 3.152%
% inhibition of IAPP (Thioflavin T fluorometry) ([2]; IAPP:test compound wt/wt ratio 1:0.1): 1.6 +/− 5.86%
% inhibition of IAPP (Thioflavin T fluorometry) ([2]; IAPP:test compound wt/wt ratio 1:1): 0.0 ± 1.31%
disruption/disassembly of preformed IAPP fibrils, in words [2, 4]: no significant inhibition/disruption
detection of Aβ 1-42 monomers (~4 kilodalton band) after incubation [3]: detected as a ˜4 kilodalton band
